From patent publication US10669272B2, “Substituted naphthyridinone compounds useful as T cell activators” (BRISTOL-MYERS SQUIBB COMPANY, priority 2018, dated 2020)
Like-named read-outs stand apart in the source and are kept apart here.

Key:
human DGKζ = target: T1, human DGKζ (Homo sapiens, UniProt Q13574); test: DGKζ LIPGLO assay (extruded liposome substrate), in vitro DGK inhibition; format: biochemical; details: liposome (LIPGLO) assay; read-out: DGKz LIPGLO IC50
T1 construct: TVMV protease cleavage site (C); Hexa-His (C); made in house; host or cells: Sf9 insect cells (baculovirus, Bac-to-Bac)
T1 sequence (Q13574 with tags, fused parts or gaps isoform Q13574-4): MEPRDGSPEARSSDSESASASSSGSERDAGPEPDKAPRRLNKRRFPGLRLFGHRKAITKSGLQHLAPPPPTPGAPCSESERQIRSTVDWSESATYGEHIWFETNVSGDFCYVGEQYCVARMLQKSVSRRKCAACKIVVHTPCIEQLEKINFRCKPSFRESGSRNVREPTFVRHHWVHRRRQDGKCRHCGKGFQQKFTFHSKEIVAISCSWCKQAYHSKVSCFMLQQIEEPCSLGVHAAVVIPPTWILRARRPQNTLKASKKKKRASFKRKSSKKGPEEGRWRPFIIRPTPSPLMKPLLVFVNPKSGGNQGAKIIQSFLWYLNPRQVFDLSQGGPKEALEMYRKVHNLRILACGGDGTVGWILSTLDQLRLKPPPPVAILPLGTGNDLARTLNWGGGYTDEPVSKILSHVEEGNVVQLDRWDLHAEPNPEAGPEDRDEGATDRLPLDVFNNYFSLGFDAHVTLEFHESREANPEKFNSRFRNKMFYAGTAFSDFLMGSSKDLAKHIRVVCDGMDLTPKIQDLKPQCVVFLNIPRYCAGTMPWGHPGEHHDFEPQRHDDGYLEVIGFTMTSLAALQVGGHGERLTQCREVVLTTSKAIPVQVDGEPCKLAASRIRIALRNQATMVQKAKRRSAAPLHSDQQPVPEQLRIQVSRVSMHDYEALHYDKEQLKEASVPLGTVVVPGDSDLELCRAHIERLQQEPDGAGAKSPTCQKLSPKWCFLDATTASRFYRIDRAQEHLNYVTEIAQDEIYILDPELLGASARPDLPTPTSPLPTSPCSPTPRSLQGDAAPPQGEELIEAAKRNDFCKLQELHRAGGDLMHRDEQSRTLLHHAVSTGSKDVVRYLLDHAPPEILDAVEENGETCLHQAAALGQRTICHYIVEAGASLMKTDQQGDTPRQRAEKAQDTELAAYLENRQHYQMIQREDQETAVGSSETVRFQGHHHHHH

human DGKα = target: T2, human DGKα (Homo sapiens, UniProt P23743); test: DGKα LIPGLO assay (extruded liposome substrate), in vitro DGK inhibition; format: biochemical; details: liposome (LIPGLO) assay; read-out: DGKa LIPGLO IC50
T2 construct: TVMV protease cleavage site (C); Hexa-His (C); made in house; host or cells: Sf9 insect cells (baculovirus, Bac-to-Bac)
T2 sequence (P23743 with tags, fused parts or gaps): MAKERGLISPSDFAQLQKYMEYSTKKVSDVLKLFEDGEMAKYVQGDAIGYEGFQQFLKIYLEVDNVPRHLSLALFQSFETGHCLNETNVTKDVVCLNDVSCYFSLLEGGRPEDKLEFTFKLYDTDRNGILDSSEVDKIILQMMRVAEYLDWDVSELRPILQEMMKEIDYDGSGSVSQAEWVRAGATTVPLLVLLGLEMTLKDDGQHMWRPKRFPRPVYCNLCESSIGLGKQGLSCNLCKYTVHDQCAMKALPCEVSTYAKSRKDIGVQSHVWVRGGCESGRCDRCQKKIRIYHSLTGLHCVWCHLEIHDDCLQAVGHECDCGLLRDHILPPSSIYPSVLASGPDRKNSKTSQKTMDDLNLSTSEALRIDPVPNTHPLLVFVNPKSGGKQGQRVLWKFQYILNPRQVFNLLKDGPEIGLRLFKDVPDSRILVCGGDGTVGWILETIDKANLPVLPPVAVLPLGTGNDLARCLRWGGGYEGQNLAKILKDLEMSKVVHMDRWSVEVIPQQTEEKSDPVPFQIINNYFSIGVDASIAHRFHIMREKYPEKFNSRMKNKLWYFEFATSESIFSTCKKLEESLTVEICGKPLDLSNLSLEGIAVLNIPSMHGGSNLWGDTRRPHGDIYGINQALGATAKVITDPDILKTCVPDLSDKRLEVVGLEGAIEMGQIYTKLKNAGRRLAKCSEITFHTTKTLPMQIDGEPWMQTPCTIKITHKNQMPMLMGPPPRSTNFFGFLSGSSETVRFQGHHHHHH

naïve human CD8 T cells = test: Human CD8 T cells IFN-γ assay; format: cell-based; details: normalized to 3 μM reference compound with anti-CD3 plus anti-CD28 as 100% activation, read-out: HuCD8 INFG Normalized EC50;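 further: Naïve human CD8 T cells stimulated with plate-bound anti-CD3 and soluble anti-CD28, IFN-γ in supernatant quantified by AlphaLISA and converted to pg/mL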
[1] = tested on: OT-1 CD8+ T cells with SIINFEKL-loaded MC38 tumor cells; test: Murine cytotoxic T lymphocyte assay (IFN-γ, OT-1 CTL with MC38 tumor cells); format: cell-based, mouse; details: read-out: msCTL INFg IC50
How it was run: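 OT-1 CD8+ T cells, expanded 5 days with OVA peptide (1 μg/mL) and mIL2, pretreated 1 h with DGK inhibitors, then co-cultured overnight at 37° C at 1:10 with MC38 cells pulsed 3 h with 1 μg/mL SIINFEKL. IFN-γ in 24 h supernatant by AlphaLISA.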

Human venous whole blood = test: Human whole blood IFN-γ assay; format: cell-based; details: human whole blood, normalized to 3 μM reference compound with anti-CD3 plus anti-CD28 as 100% activation, read-out: INFg Whole Blood Normalized Agonist EC50;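 further: blood from healthy donors exposed to compound for 1 h before stimulation with anti-CD3 and anti-CD28 at 1 µg/mL each, IFN-γ quantified in supernatant by AlphaLISA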
Method: Human Whole Blood IFN-γ Assay
Human venous whole blood (22.5 μL per well), obtained from healthy donors, was pre-treated with compounds for one hour at 37° C. in a humidified 95% air/5% CO2 incubator. The blood was stimulated with 2.5 μL anti-human CD3 and anti-CD28 mAb at a final concentration of 1 μg/mL each for 24 hours at 37° C. IFN-γ in the supernatants was measured using AlphLISA kit (Cat # AL217).

Compound `Cc1c(N2C[C@@H](C)N(C(c3ccc(F)cc3)c3ccc(F)cc3)C[C@@H]2C)c2nc(C#N)ccc2n(C)c1=O` [Example 22, 8-((2S,5R)-4-(bis(4-fluorophenyl)methyl)-2,5-dimethylpiperazin-1-yl)-5,7-dimethyl-6-oxo-5,6-dihydro-1,5-naphthyridine-2-carbonitrile] has an IC50 (human DGKζ) of 37 µM, an IC50 (human DGKα) of 44 µM and an EC50 (naïve human CD8 T cells; Homo sapiens, T-cell, 20 h) of 10 µM. It also gave an IC50 ([1]; Mus musculus, MC-38) of 10 µM and an EC50 (Human venous whole blood; Homo sapiens, 24 h) of 20 µM.

In the case of `Cc1ccc(C(c2ccc(Cl)cc2)N2C[C@H](C)N(c3cc(=O)n(C)c4ccc(C#N)nc34)C[C@H]2C)cc1` (single isomer, unassigned) [Example 250], the IC50 (human DGKζ) is reported as 0.63 µM, the IC50 (human DGKα) is reported as 0.6 µM and the EC50 (naïve human CD8 T cells) is reported as 0.12 µM. For the same compound, the IC50 [1] was 0.19 µM and the EC50 (Human venous whole blood) was 0.71 µM.

`C[C@@H]1CN(c2c(F)c(=O)n(C)c3ccc(C#N)nc23)[C@@H](C)CN1C(c1ccc(F)cc1)c1ccc(F)cc1` [Example 157, 8-((2S,5R)-4-(bis(4-fluorophenyl)methyl)-2,5-dimethylpiperazin-1-yl)-7-fluoro-5-methyl-6-oxo-5,6-dihydro-1,5-naphthyridine-2-carbonitrile] showed an IC50 (human DGKζ) of 0.38 µM, an IC50 (human DGKα) of 0.35 µM and an EC50 (naïve human CD8 T cells; Homo sapiens, T-cell, 20 h) of 0.072 µM. The IC50 ([1]; Mus musculus, MC-38) was 0.078 µM and the EC50 (Human venous whole blood; Homo sapiens, 24 h) was 0.53 µM.

For `COC(=O)C1CN(C(c2ccc(F)cc2)c2ccc(F)cc2)CCN1c1c(C#N)c(=O)n(C)c2ccc(C#N)nc12` (single isomer, unassigned) [Example 117, Methyl 4-(bis(4-fluorophenyl)methyl)-1-(3,6-dicyano-1-methyl-2-oxo-1,2-dihydro-1,5-naphthyridin-4-yl)piperazine-2-carboxylate], the IC50 (human DGKζ) was 7.2 µM, the IC50 (human DGKα) was 0.35 µM and the EC50 (naïve human CD8 T cells) was 0.28 µM. It also gave an IC50 [1] of 0.27 µM and an EC50 (Human venous whole blood) of 2.5 µM.

Work on `C[C@@H]1CN(C(c2ccc(F)cc2)c2ccc(F)cc2)[C@H](C)CN1c1c(Cl)c(=O)n(C)c2ccc(C#N)nc12` [Example 132, 8-((2R,5R)-4-(bis(4-fluorophenyl)methyl)-2,5-dimethylpiperazin-1-yl)-7-chloro-5-methyl-6-oxo-5,6-dihydro-1,5-naphthyridine-2-carbonitrile] yielded an IC50 (human DGKζ) of 2.7 µM, an IC50 (human DGKα) of 51 µM and an EC50 (naïve human CD8 T cells; Homo sapiens, T-cell, 20 h) of 2.1 µM. For the same compound, the IC50 ([1]; Mus musculus, MC-38) was 7.1 µM and the EC50 (Human venous whole blood; Homo sapiens, 24 h) was 8.3 µM.

`C[C@@H]1CN(c2c(C#N)c(=O)n(C)c3ccc(C#N)nc23)CCN1C(c1ccc(F)cc1)c1ccc(F)cc1` [Example 32, (R)-8-(4-(bis(4-fluorophenyl)methyl)-3-methylpiperazin-1-yl)-5-methyl-6-oxo-5,6-dihydro-1,5-naphthyridine-2,7-dicarbonitrile] showed an IC50 (human DGKζ) of 0.85 µM, an IC50 (human DGKα) of 0.98 µM and an EC50 (naïve human CD8 T cells; Homo sapiens, T-cell, 20 h) of 0.017 µM. It also gave an IC50 ([1]; Mus musculus, MC-38) of 0.043 µM and an EC50 (Human venous whole blood; Homo sapiens) of 0.4 µM.

In the case of `CC(C)[C@@H]1CN(C(c2ccc(F)cc2)c2ccc(F)cc2)CCN1c1cc(=O)n(C)c2ccc(C#N)nc12` [Example 181, (R)-8-(4-(bis(4-fluorophenyl)methyl)-2-isopropylpiperazin-1-yl)-5-methyl-6-oxo-5,6-dihydro-1,5-naphthyridine-2-carbonitrile], the IC50 (human DGKζ) is reported as 240 µM, the IC50 (human DGKα) is reported as 240 µM and the EC50 (naïve human CD8 T cells; Homo sapiens, T-cell, 20 h) is reported as 10 µM. For the same compound, the IC50 ([1]; Mus musculus, MC-38) was 10 µM and the EC50 (Human venous whole blood; Homo sapiens, 24 h) was 20 µM.

`Cn1c(=O)cc(N2CCN(C(c3ccc(F)cc3)c3ccc(F)cc3)C(C(C)(C)O)C2)c2nc(C#N)ccc21` (single isomer, unassigned) [Example 79, 8-(4-(bis(4-fluorophenyl)methyl)-3-(2-hydroxypropan-2-yl)piperazin-1-yl)-5-methyl-6-oxo-5,6-dihydro-1,5-naphthyridine-2-carbonitrile] was tested, and the IC50 (human DGKζ) was 240 µM, the IC50 (human DGKα) was 6.7 µM and the EC50 (naïve human CD8 T cells) was 10 µM. The IC50 [1] was 8 µM and the EC50 (Human venous whole blood) was 10 µM.

`COC(=O)C1CN(c2cc(=O)n(C)c3ccc(C#N)nc23)CCN1C(c1ccc(Cl)cc1)c1ccc(Cl)cc1` (single isomer, unassigned) [Example 97, methyl 1-(bis(4-chlorophenyl)methyl)-4-(6-cyano-1-methyl-2-oxo-1,2-dihydro-1,5-naphthyridin-4-yl)piperazine-2-carboxylate] gave an IC50 (human DGKζ) of 1.7 µM, an IC50 (human DGKα) of 14 µM and an EC50 (naïve human CD8 T cells; Homo sapiens, T-cell, 20 h) of 0.057 µM. For the same compound, the IC50 ([1]; Mus musculus, MC-38) was 0.096 µM and the EC50 (Human venous whole blood) was 1.7 µM.

Compound `C[C@@H]1CN(c2c(C#N)c(=O)n(C)c3ccc(C#N)nc23)[C@@H](C)CN1C(c1ccc(F)cc1)c1ccc(F)cc1` [Example 159, 8-((2S,5R)-4-(bis(4-fluorophenyl)methyl)-2,5-dimethylpiperazin-1-yl)-5-methyl-6-oxo-5,6-dihydro-1,5-naphthyridine-2,7-dicarbonitrile] has an IC50 (human DGKζ) of 0.96 µM, an IC50 (human DGKα) of 2.8 µM and an EC50 (naïve human CD8 T cells; Homo sapiens, T-cell, 20 h) of 0.035 µM. It also gave an IC50 ([1]; Mus musculus, MC-38) of 0.14 µM and an EC50 (Human venous whole blood; Homo sapiens, 24 h) of 1 µM.

`Cn1c(=O)cc(N2CCN(C(c3ccc(F)cc3)c3ccc(F)cc3)C(C(=O)OC3CC3)C2)c2nc(C#N)ccc21` (single isomer, unassigned) [Example 106, cyclopropyl 1-(bis(4-fluorophenyl)methyl)-4-(6-cyano-1-methyl-2-oxo-1,2-dihydro-1,5-naphthyridin-4-yl)piperazine-2-carboxylate] showed an IC50 (human DGKζ) of 13 µM, an IC50 (human DGKα) of 240 µM and an EC50 (naïve human CD8 T cells) of 0.61 µM. It also gave an IC50 [1] of 2.9 µM and an EC50 (Human venous whole blood; Homo sapiens, 24 h) of 8.5 µM.

Work on `Cn1c(=O)cc(N2CCN(C(c3ccc(F)cc3)c3ccc(F)cc3)C(C(N)=O)C2)c2nc(C#N)ccc21` (single isomer, unassigned) [Example 42, 1-(bis(4-fluorophenyl)methyl)-4-(6-cyano-1-methyl-2-oxo-1,2-dihydro-1,5-naphthyridin-4-yl)piperazine-2-carboxamide] yielded an IC50 (human DGKζ) of 9.7 µM, an IC50 (human DGKα) of 180 µM and an EC50 (naïve human CD8 T cells) of 0.61 µM. The IC50 ([1]; Mus musculus, MC-38) was 2.6 µM and the EC50 (Human venous whole blood; Homo sapiens, 24 h) was 3.1 µM.

With `Cn1c(=O)cc(N2CCN(C(c3ccc(F)cc3)c3ccc(F)cc3)C(CF)C2)c2nc(C#N)ccc21` (centres unmarked) [Example 8, 8-(4-(bis(4-fluorophenyl)methyl)-3-(fluoromethyl)piperazin-1-yl)-5-methyl-6-oxo-5,6-dihydro-1,5-naphthyridine-2-carbonitrile] the IC50 (human DGKζ) was 5 µM, the IC50 (human DGKα) was 17 µM and the EC50 (naïve human CD8 T cells; Homo sapiens, T-cell, 20 h) was 0.23 µM. It also gave an IC50 ([1]; Mus musculus, MC-38) of 1 µM and an EC50 (Human venous whole blood; Homo sapiens, 24 h) of 14 µM.

Compound `C[C@@H]1CN(c2cc(=O)n(C)c3ccc(C#N)nc23)[C@@H](C)CN1C(c1ccc(F)cc1)c1ccc(Cl)cc1` (single isomer, unassigned) [Example 303] has an IC50 (human DGKζ) of 0.69 µM, an IC50 (human DGKα) of 0.5 µM and an EC50 (naïve human CD8 T cells) of 0.16 µM. It also gave an IC50 [1] of 0.057 µM and an EC50 (Human venous whole blood) of 0.65 µM.

In the case of `COc1ncccc1C(c1ccc(F)cc1)N1C[C@H](C)N(c2cc(=O)n(C)c3ccc(C#N)nc23)C[C@H]1C` (single isomer, unassigned) [Example 210], the IC50 (human DGKζ) is reported as 0.26 µM, the IC50 (human DGKα) is reported as 14 µM and the EC50 (naïve human CD8 T cells) is reported as 0.13 µM. For the same compound, the IC50 ([1]; Mus musculus, MC-38) was 0.12 µM and the EC50 (Human venous whole blood) was 1.1 µM.

`C[C@@H]1CN(c2c(C#N)c(=O)n(C)c3cccnc23)[C@@H](C)CN1C(c1ccc(F)cc1)c1ccc(F)cc1` [Example 160, 4-((2S,5R)-4-(bis(4-fluorophenyl)methyl)-2,5-dimethylpiperazin-1-yl)-1-methyl-2-oxo-1,2-dihydro-1,5-naphthyridine-3-carbonitrile] was tested, and the IC50 (human DGKζ) was 44 µM, the IC50 (human DGKα) was 2.4 µM and the EC50 (naïve human CD8 T cells; Homo sapiens, T-cell, 20 h) was 10 µM. For the same compound, the IC50 ([1]; Mus musculus, MC-38) was 10 µM and the EC50 (Human venous whole blood; Homo sapiens, 24 h) was 20 µM.
